Values quoted from earlier work in patent US7375136B2, “pH-dependent NMDA receptor antagonists” (Emory University, priority 2001, dated 2008).

Target: NR2B subunit-containing recombinant NMDA receptors (Homo sapiens, UniProt Q05586+Q13224)
Conditions: pH 6.8 compared to pH 7.5; cited from earlier work

Chain of NR2B subunit-containing recombinant NMDA receptors (Q13224 27-1484, other chains not shown): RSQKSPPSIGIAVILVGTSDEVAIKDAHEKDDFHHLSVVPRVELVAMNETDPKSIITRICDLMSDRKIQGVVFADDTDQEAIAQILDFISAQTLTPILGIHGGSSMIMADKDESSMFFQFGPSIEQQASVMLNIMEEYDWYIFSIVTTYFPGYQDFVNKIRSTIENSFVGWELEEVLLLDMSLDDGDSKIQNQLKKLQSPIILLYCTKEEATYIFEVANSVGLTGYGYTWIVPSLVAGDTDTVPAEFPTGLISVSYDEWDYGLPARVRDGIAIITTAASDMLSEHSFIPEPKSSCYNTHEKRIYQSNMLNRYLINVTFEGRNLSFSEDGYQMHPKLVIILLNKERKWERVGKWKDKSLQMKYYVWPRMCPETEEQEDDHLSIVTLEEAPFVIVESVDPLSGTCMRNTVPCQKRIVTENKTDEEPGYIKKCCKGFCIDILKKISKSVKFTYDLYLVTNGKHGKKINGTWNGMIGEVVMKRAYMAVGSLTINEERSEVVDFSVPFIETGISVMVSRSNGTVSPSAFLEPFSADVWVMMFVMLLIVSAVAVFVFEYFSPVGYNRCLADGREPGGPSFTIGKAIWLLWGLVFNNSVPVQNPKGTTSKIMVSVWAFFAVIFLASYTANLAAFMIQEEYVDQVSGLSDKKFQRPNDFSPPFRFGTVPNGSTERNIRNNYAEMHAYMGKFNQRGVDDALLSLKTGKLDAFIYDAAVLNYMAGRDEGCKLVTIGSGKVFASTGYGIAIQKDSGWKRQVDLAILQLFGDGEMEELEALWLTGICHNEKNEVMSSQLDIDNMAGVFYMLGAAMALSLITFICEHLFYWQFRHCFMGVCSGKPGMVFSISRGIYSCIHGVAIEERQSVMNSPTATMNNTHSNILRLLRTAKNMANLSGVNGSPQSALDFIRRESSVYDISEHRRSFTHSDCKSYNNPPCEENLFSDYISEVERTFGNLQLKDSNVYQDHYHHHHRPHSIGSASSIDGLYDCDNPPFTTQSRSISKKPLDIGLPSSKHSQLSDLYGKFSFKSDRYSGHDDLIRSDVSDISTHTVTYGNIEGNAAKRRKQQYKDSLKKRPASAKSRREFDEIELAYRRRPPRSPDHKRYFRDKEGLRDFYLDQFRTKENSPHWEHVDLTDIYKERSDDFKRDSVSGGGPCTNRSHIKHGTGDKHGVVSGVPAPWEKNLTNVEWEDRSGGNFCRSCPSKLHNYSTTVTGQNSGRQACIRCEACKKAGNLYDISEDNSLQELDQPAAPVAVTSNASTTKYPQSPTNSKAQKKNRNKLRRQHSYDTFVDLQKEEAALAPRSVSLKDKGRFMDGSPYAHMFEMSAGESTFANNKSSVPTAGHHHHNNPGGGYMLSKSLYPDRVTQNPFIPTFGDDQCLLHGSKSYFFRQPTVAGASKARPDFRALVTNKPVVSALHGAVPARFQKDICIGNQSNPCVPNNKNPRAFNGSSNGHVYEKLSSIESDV

## CC(C(O)c1ccc(O)cc1)N1CCC(Cc2ccccc2)CC1 (stereo not shown) [Ifenprodil]
  potency for inhibition of NR2B subunit-containing recombinant NMDA receptors as a function of pH: enhanced at pH 6.8 compared to pH 7.5
